EC50 and inhibition data for 22 compounds are collected here from patent US10226453B2, “3-(1H-indol-2-yl)-1H-pyrazolo[4,3-B]pyridines and therapeutic uses thereof” (Samumed, LLC, priority 2015, dated 2019).

Common to all, as to format: cell-based
The subject of assay [1] is Wnt activity (Sp5-Luc reporter, SW480 colon carcinoma cells). The assay can be described thus: Wnt activity screening assay: Sp5-Luc reporter gene in SW480 colon carcinoma cells. The following applies: Homo sapiens; for EC50: overnight incubation, 10-point curve from 10 μM; for inhibition at 10 µM: given where EC50 >10 μM, read-out: percent inhibition at 10 μM. Summed up: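 Luminescence read-out (BrightGlo) from stable Sp5-Luc SW480 cells, normalized to DMSO-only wells. Cells were treated overnight at 37° C in 1% FBS medium across a 1:3, 10-point series starting at 10 μM. EC50 from variable-slope four-parameter regression; percent inhibition at 10 μM given where EC50 >10 μM.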
In general terms: In a reporter assay the amount or activity of a reporter protein is the signal.

In assay [2] the test system is SW480 colon cancer cells. Kind of assay: Cell viability assay (CellTiter-Blue), SW480 colon cancer cells. The settings on record: Homo sapiens, 96 h, four days; for EC50: CellTiter-Blue; for inhibition at 10 µM: given where EC50 >10 μM, read-out: percent inhibition at 10 μM. Summed up:
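SW480 cells (~2×10^3/well) exposed four days at 37 °C to 8-point 1:3 dilutions, 10 μM down to 0.0045 μM. Viability from resazurin reduction (CellTiter-Blue, ~3 h, Ex 560/Em 590); EC50 by non-linear regression, or percent inhibition at 10 μM where EC50 exceeds 10 μM.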
Background: The colour change of resazurin is a common sign of viable cells or microbes.

For assay [3], the system named is IL-6 (THP-1 cells). Kind of assay: IL-6 inhibition in LPS-stimulated THP-1 human monocyte cells (HTRF). The following applies: LPS 500 ng/mL; for EC50: 22 hours, IL6 HTRF; for inhibition at 10 µM: given where EC50 >10 μM, read-out: percent inhibition at 10 μM. An outline of the steps:
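THP-1 cells, serum-reduced (1% FBS) for 24 h, were preincubated with compound (10-point 1:3 series from 10 μM, 0.1% DMSO) for 2 h, then stimulated with 500 ng/mL LPS for 22 h at 37° C. IL-6 was read by HTRF (665/620 nm ratio) and normalized to DMSO. EC50 from four-parameter fit; % inhibition at 10 μM given if EC50 >10 μM.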
(In general: In TR-FRET formats the signal depends on donor and acceptor labels being close together.)

For `CC(C)(C)C(=O)Nc1cncc(-c2ccc3[nH]nc(-c4cc5c(-c6cccc(F)c6)cccc5[nH]4)c3n2)c1` [Compound 8, N-(5-(3-(4-(3-Fluorophenyl)-1H-indol-2-yl)-1H-pyrazolo[4,3-b]pyridin-5-yl)pyridin-3-yl)pivalamide], the EC50 (commonly the concentration that produces a half-maximal response) in assay [1] is 2930 nM; in assay [2] it was above 10000 nM; in assay [3], 2720 nM. The inhibition (as a rule, the change of the read-out against control, counted positive when it falls) at 10 µM in assay [2] was determined as 20.9%.

On to `CN(C)Cc1cncc(-c2ccc3[nH]nc(-c4cc5c(-c6ccc(F)cc6)cccc5[nH]4)c3n2)c1` [Compound 41, 1-(5-(3-(4-(4-Fluorophenyl)-1H-indol-2-yl)-1H-pyrazolo[4,3-b]pyridin-5-yl)pyridin-3-yl)-N,N-dimethylmethanamine], for which the EC50 turned out to be 362 nM in assay [1], 1680 nM in assay [2] and 549 nM in assay [3].

On to `Fc1ccc(-c2cccc3[nH]c(-c4n[nH]c5ccc(-c6cncnc6)nc45)cc23)cc1` [Compound 55, 3-(4-(4-Fluorophenyl)-1H-indol-2-yl)-5-(pyrimidin-5-yl)-1H-pyrazolo[4,3-b] pyridine], for which the EC50 in assay [1] was 1310 nM; in assay [2], above 10000 nM; in assay [3], 103 nM. Also, the inhibition at 10 µM in assay [2] was 18.5%.

For `Fc1ccccc1-c1cccc2[nH]c(-c3n[nH]c4ccc(-c5cncc(CN6CCCCC6)c5)nc34)cc12` [Compound 71, 3-(4-(2-Fluorophenyl)-1H-indol-2-yl)-5-(5-(piperidin-1-ylmethyl)pyridin-3-yl)-1H-pyrazolo[4,3-b]pyridine], the results for the EC50 in assay [1], in assay [2] and in assay [3] were 663 nM, 1060 nM and 271 nM, respectively.

As for `Fc1ccccc1-c1cccc2[nH]c(-c3n[nH]c4ccc(-c5cncc(CNCc6ccccc6)c5)nc34)cc12` [Compound 80, N-Benzyl-1-(5-(3-(4-(2-fluorophenyl)-1H-indol-2-yl)-1H-pyrazolo[4,3-b]pyridin-5-yl)pyridin-3-yl)methanamine], the values for the inhibition at 10 µM in assay [1] and in assay [2] were 44% and 18.5%, respectively. For the same compound, the concentration for a half-maximal effect (EC50) was above 10000 nM in assay [1], above 10000 nM in assay [2] and 6730 nM in assay [3].

As to `c1cncc(-c2ccc3[nH]nc(-c4cc5c(-c6cccnc6)cccc5[nH]4)c3n2)c1` [Compound 88, 5-(Pyridin-3-yl)-3-(4-(pyridin-3-yl)-1H-indol-2-yl)-1H-pyrazolo[4,3-b] pyridine], the figures for the EC50 in assay [1], in assay [2] and in assay [3] were 185 nM, 775 nM and 31 nM, respectively.

For the compound `CN(C)Cc1cncc(-c2ccc3[nH]nc(-c4cc5c(-c6cccnc6)cccc5[nH]4)c3n2)c1` [Compound 97, N,N-Dimethyl-1-(5-(3-(4-(pyridin-3-yl)-1H-indol-2-yl)-1H-pyrazolo[4,3-b]pyridin-5-yl)pyridin-3-yl)methanamine], the results for the EC50 in assay [1], in assay [2] and in assay [3] were 415 nM, 801 nM and 154 nM, respectively.

For the compound `Nc1cncc(-c2ccc3[nH]nc(-c4cc5c(-c6ccncc6)cccc5[nH]4)c3n2)c1` [Compound 115, 5-(3-(4-(Pyridin-4-yl)-1H-indol-2-yl)-1H-pyrazolo[4,3-b]pyridin-5-yl) pyridin-3-amine], the values for the EC50 in assay [1], in assay [2] and in assay [3] were 67 nM, 218 nM and 52 nM, respectively.

Turning to `Cc1ccncc1-c1ccc2[nH]nc(-c3cc4c(-c5ccncc5)cccc4[nH]3)c2n1` [Compound 117, 5-(4-Methylpyridin-3-yl)-3-(4-(pyridin-4-yl)-1H-indol-2-yl)-1H-pyrazolo [4,3-b]pyridine], the 50% effective concentration (EC50) in assay [1] was found to be 299 nM; in assay [2], 696 nM; in assay [3], 21 nM.

On to `c1cc(-c2ccncc2)c2cc(-c3n[nH]c4ccc(-c5cncc(CN6CCCCC6)c5)nc34)[nH]c2c1` [Compound 127, 5-(5-(Piperidin-1-ylmethyl)pyridin-3-yl)-3-(4-(pyridin-4-yl)-1H-indol-2-yl)-1H-pyrazolo[4,3-b]pyridine], for which the figures for the EC50 in assay [1], in assay [2] and in assay [3] were 5160 nM, 1920 nM and 483 nM, respectively.

Take `c1cc(-c2ccncc2)c2cc(-c3n[nH]c4ccc(-c5cncc(CNCC6CCCC6)c5)nc34)[nH]c2c1` [Compound 137, 1-Cyclopentyl-N-((5-(3-(4-(pyridin-4-yl)-1H-indol-2-yl)-1H-pyrazolo[4,3-b]pyridin-5-yl)pyridin-3-yl)methyl)methanamine]: the concentration giving a half-maximal response (EC50) in assay [1] is 7160 nM; in assay [2] it was above 10000 nM; in assay [3] it was 3240 nM. Also, the inhibition at 10 µM in assay [2] is 14.7%.

For the compound `c1ccc(-c2ccc3[nH]nc(-c4cc5c(-c6ccncc6)cccc5[nH]4)c3n2)nc1` [Compound 140, 5-(Pyridin-2-yl)-3-(4-(pyridin-4-yl)-1H-indol-2-yl)-1H-pyrazolo[4,3-b] pyridine], the EC50 is 3060 nM in assay [1], above 10000 nM in assay [2] and 249 nM in assay [3]. Also, in assay [2], the inhibition at 10 µM was found to be 33.4%.

Regarding `FC1(F)CCN(Cc2cncc(-c3ccc4[nH]nc(-c5cc6c(-c7ccccn7)cccc6[nH]5)c4n3)c2)C1` [Compound 166, 5-(5-((3,3-Difluoropyrrolidin-1-yl)methyl)pyridin-3-yl)-3-(4-(pyridin-2-yl)-1H-indol-2-yl)-1H-pyrazolo[4,3-b]pyridine], the EC50 amounted to 432 nM in assay [1], 1180 nM in assay [2] and 306 nM in assay [3].

Take `c1ccc(-c2cccc3[nH]c(-c4n[nH]c5ccc(-c6cncnc6)nc45)cc23)nc1` [Compound 167, 3-(4-(Pyridin-2-yl)-1H-indol-2-yl)-5-(pyrimidin-5-yl)-1H-pyrazolo[4,3-b] pyridine]: the figures for the EC50 in assay [1], in assay [2] and in assay [3] were 431 nM, above 10000 nM and above 10000 nM, respectively. In addition, the inhibition at 10 µM came out at 13.8% in assay [2] and 12.8% in assay [3].

On to `CCCCC(=O)Nc1cncc(-c2ccc3[nH]nc(-c4cc5c(N6CCCCC6)cccc5[nH]4)c3n2)c1` [Compound 187, N-(5-(3-(4-(Piperidin-1-yl)-1H-indol-2-yl)-1H-pyrazolo[4,3-b]pyridin-5-yl)pyridin-3-yl)pentanamide], for which the concentration giving a half-maximal response (EC50) in assay [1] was determined as 572 nM; in assay [2], 4440 nM; in assay [3] it was 85 nM.

With `c1ccc(-c2ccc3[nH]nc(-c4cc5c(N6CCCCC6)cccc5[nH]4)c3n2)nc1` [Compound 196, 3-(4-(Piperidin-1-yl)-1H-indol-2-yl)-5-(pyridin-2-yl)-1H-pyrazolo[4,3-b] pyridine], the inhibition at 10 µM in assay [1] came out at 6.2%; in assay [2], 10.4%. Also, the results for the EC50 in assay [1], in assay [2] and in assay [3] were above 10000 nM, above 10000 nM and 1860 nM, respectively.

As for `Cc1ccncc1-c1ccc2[nH]nc(-c3cc4c(N5CCN(C)CC5)cccc4[nH]3)c2n1` [Compound 229, 3-(4-(4-Methylpiperazin-1-yl)-1H-indol-2-yl)-5-(4-methylpyridin-3-yl)-1H-pyrazolo[4,3-b]pyridine], the results for the half-maximal effective concentration (EC50) in assay [1], in assay [2] and in assay [3] were 2020 nM, 4740 nM and 1280 nM, respectively.

In the case of `CN1CCN(c2cccc3[nH]c(-c4n[nH]c5ccc(-c6cncc(NC(=O)c7ccccc7)c6)nc45)cc23)CC1` [Compound 235, N-(5-(3-(4-(4-Methylpiperazin-1-yl)-1H-indol-2-yl)-1H-pyrazolo[4,3-b]pyridin-5-yl)pyridin-3-yl)benzamide], the EC50 turned out to be 4060 nM in assay [1], 3910 nM in assay [2] and 741 nM in assay [3].

As to `CN1CCN(c2cccc3[nH]c(-c4n[nH]c5ccc(-c6cncnc6)nc45)cc23)CC1` [Compound 251, 3-(4-(4-Methylpiperazin-1l-yl)-1H-indol-2-yl)-5-(pyrimidin-5-yl)-1H-pyrazolo[4,3-b]pyridine], the inhibition at 10 µM in assay [1] stood at 38.4%; in assay [2] it was 15.3%. Besides, the EC50 in assay [1] is above 10000 nM; in assay [2] it was above 10000 nM; in assay [3], 751 nM.

Consider `c1cncc(-c2ccc3[nH]nc(-c4cc5ccccc5[nH]4)c3n2)c1` [Compound 256, 3-(1H-Indol-2-yl)-5-(pyridin-3-yl)-1H-pyrazolo[4,3-b]pyridine], for which the EC50 in assay [1] was 1300 nM; in assay [2] it was above 10000 nM; in assay [3], 13 nM. In assay [2], the inhibition at 10 µM came out at 37.6%.

For `CN(C)Cc1cncc(-c2ccc3[nH]nc(-c4cc5ccccc5[nH]4)c3n2)c1` [Compound 265, 1-(5-(3-(1H-Indol-2-yl)-1H-pyrazolo[4,3-b]pyridin-5-yl)pyridin-3-yl)-N,N-dimethylmethanamine], the concentration for a half-maximal effect (EC50) in assay [1] is 904 nM; in assay [2] it was 2940 nM; in assay [3] it was above 10000 nM. In assay [3], the inhibition at 10 µM was found to be 0%.

With `FC1(F)CCN(Cc2cncc(-c3ccc4[nH]nc(-c5cc6ccccc6[nH]5)c4n3)c2)C1` [Compound 278, 5-(5-((3,3-Difluoropyrrolidin-1-yl)methyl)pyridin-3-yl)-3-(1H-indol-2-yl)-1H-pyrazolo[4,3-b]pyridine], the results for the EC50 in assay [1], in assay [2] and in assay [3] were 117 nM, 590 nM and 207 nM, respectively.
